Assay results taken from patent US10988477B2 (Merck Patent GmbH, priority 2018, dated 2021).
pIC50, pKi: −log10 of the molar value.

Columns and labels:
GCN2 kinase = GCN2 kinase (Homo sapiens, UniProt Q9P2K8); assay: GCN2 enzyme inhibition assay (Transcreener ADP2 fluorescence polarization); format: biochemical; details: 280 μM ATP
Outline: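 Run at 25 °C in 25 mM Tris-HCl pH 7.5, 50 mM NaCl, 10 mM MgCl2, 1 mM DTT with 4 nM GCN2, 280 μM ATP and 200 μM (RS)7 peptide; compound (0–8 μM final) preincubated 10 min, reaction 1 h. ADP read by antibody/tracer FP; IC50 and Ki(app) from tight-binding fit.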

[1] = target: intracellular GCN2 (phosphorylation of the GCN2 substrate eIF2α) (Homo sapiens, UniProt Q9P2K8); assay: GCN2 cellular inhibition assay (AlphaScreen SureFire P-eIF2α Ser51, borrelidin-treated U2OS cells); format: cell-based; details: biomarker assay, phosphorylated eIF2α Ser51 in borrelidin-treated U2OS cells
Outline: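 First, U2OS cells are plated and left overnight at 37 °C. Next, compounds (from 40 μM final, 4-fold steps) and 10 μM borrelidin are added for 1 h, cells lysed, and phospho-Ser51 eIF2α detected by AlphaScreen bead sandwich. Inhibition is computed versus borrelidin-only wells.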

[2] = compounds of Formula II, 4 nM GCN2 kinase
[3] = Enzyme activity for compounds of Formula IV, Ki(app), 25° C.

GCN2 kinase, sequence (Q9P2K8 whole entry): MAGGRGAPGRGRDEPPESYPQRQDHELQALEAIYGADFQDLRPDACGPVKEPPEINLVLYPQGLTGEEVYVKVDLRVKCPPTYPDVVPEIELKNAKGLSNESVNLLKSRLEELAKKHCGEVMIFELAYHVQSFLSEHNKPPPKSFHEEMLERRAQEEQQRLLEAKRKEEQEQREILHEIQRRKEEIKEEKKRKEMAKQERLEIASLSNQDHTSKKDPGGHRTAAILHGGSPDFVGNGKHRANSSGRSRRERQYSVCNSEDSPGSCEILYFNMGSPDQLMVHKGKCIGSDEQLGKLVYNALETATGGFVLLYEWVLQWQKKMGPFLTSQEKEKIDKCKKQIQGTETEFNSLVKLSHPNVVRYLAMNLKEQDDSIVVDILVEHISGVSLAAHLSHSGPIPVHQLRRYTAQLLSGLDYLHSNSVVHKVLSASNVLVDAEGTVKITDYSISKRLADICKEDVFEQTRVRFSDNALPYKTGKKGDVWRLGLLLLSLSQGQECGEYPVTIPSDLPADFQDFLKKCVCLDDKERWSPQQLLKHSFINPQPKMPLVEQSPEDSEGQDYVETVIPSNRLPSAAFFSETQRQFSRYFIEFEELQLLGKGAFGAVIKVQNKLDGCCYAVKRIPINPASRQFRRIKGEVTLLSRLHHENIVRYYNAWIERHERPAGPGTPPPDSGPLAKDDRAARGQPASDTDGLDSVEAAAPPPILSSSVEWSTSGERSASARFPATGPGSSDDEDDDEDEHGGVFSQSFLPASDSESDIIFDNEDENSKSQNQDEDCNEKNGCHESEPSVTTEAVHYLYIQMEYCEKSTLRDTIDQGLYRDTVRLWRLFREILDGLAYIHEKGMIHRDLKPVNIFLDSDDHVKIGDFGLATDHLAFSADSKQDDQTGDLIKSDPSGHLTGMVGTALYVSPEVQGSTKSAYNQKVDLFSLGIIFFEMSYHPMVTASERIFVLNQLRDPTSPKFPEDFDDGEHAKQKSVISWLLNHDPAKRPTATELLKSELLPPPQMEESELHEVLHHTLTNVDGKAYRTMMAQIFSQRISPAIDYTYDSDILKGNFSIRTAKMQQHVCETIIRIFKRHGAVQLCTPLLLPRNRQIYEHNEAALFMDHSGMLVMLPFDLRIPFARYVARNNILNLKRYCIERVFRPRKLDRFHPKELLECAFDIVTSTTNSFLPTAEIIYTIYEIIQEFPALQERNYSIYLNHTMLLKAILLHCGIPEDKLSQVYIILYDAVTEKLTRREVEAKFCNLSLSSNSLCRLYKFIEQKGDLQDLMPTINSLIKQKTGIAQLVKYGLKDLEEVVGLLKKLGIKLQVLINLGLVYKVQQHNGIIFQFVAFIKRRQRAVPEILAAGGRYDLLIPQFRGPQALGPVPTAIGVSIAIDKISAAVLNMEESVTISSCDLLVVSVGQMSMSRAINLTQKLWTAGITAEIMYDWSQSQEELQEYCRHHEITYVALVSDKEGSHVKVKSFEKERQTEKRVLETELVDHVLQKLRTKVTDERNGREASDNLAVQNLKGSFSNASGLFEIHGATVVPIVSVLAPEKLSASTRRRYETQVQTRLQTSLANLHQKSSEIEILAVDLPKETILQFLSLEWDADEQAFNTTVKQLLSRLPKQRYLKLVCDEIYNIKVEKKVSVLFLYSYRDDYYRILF
intracellular GCN2 (phosphorylation of the GCN2 substrate eIF2α), sequence (Q9P2K8 whole entry): as above

## CS(=O)(=O)NOC1CCCN(c2cc(-c3cnc4ccc(C(F)F)nn34)ccn2)C1 (stereo not shown) [II-124, N-((1-(4-(6-(Difluoromethyl)imidazo[1,2-b]pyridazin-3-yl)pyridin-2-yl)piperidin-3-yl)oxy)methanesulfonamide]
GCN2 kinase; [2]
  pKi: > 8.00
[1]; compounds of Formula II
  pIC50: 5.30 to 6.30

## O=S(=O)(NCC1CCCN(c2cc(-c3cnc4ccc(C(F)F)nn34)ncn2)C1)C(F)(F)F (stereo not shown) [II-379, N-((1-(6-(6-(Difluoromethyl)imidazo[1,2-b]pyridazin-3-yl)pyrimidin-4-yl)piperidin-3-yl)methyl)-1,1,1-trifluoromethanesulfonamide]
GCN2 kinase; [2]
  pKi: 6.00 to 8.00
[1]; compounds of Formula II
  pIC50: 5.30 to 6.30

## FC(F)c1ccc2ncc(-c3cc(N4CC5CC(C4)O5)ncn3)n2n1 [II-451, 3-(6-(6-(Difluoromethyl)imidazo[1,2-b]pyridazin-3-yl)pyrimidin-4-yl)-6-oxa-3-azabicyclo[3.1.1]heptane]
GCN2 kinase; [2]
  pKi: 6.00 to 8.00
[1]; compounds of Formula II
  pIC50: 5.30 to 6.30

## CC1(F)CCN(c2cc(-c3cnc4ccc(C(F)F)nn34)ncn2)CC1CNS(C)(=O)=O (racemic) [II-350, N-((1-(6-(6-(Difluoromethyl)imidazo[1,2-b]pyridazin-3-yl)pyrimidin-4-yl)-4-fluoro-4-methylpiperidin-3-yl)methyl)methanesulfonamide]
GCN2 kinase; [2]
  pKi: > 8.00
[1]; compounds of Formula II
  pIC50: > 6.30

## CS(=O)(=O)NCC1CCCN(c2cc(-c3cnc4ccc(C(F)F)nn34)cc(O)n2)C1 (stereo not shown) [II-141, N-((1-(4-(6-(difluoromethyl)imidazo[1,2-b]pyridazin-3-yl)-6-oxo-1,6-dihydropyridin-2-yl)piperidin-3-yl)methyl)methanesulfonamide]
GCN2 kinase; [2]
  pKi: > 8.00
[1]; compounds of Formula II
  pIC50: 5.30 to 6.30

## CS(=O)(=O)N1CCC2(CCN(c3ccnc(-c4cnc5cnc(C(F)F)cn45)n3)C2)CC1 [IV-145, 2-(2-(6-(Difluoromethyl)imidazo[1,2-a]pyrazin-3-yl)pyrimidin-4-yl)-8-(methylsulfonyl)-2,8-diazaspiro[4.5]decane]
GCN2 kinase; [3]
  pKi: 6.00 to 7.00
[1]; compounds of Formula IV
  pIC50: < 5.30

## CN1CCN(c2cc(-c3cnc4ccc(C(F)F)nn34)ncn2)CC1C(N)=O (stereo not shown) [II-453, 4-(6-(6-(Difluoromethyl)imidazo[1,2-b]pyridazin-3-yl)pyrimidin-4-yl)-1-methylpiperazine-2-carboxamide]
GCN2 kinase; [2]
  pKi: 6.00 to 8.00
[1]; compounds of Formula II
  pIC50: < 5.30

## C[C@H]1CN(c2ccnc(-c3cnc4cnc(C(F)(F)F)cn34)n2)C[C@@H](c2c[nH]cn2)N1 (racemic) [IV-379, Cis-3-(4-(3-(1H-Imidazol-4-yl)-5-methylpiperazin-1-yl)pyrimidin-2-yl)-6-(trifluoromethyl)imidazo[1,2-a]pyrazine]
GCN2 kinase; [3]
  pKi: > 8.00
[1]; compounds of Formula IV
  pIC50: 5.30 to 6.30

## CS(=O)(=O)N1CC2(CN(c3cc(-c4cnc5ccc(C(F)F)nn45)ccn3)CCO2)C1 [II-126, 8-(4-(6-(Difluoromethyl)imidazo[1,2-b]pyridazin-3-yl)pyridin-2-yl)-2-(methylsulfonyl)-5-oxa-2,8-diazaspiro[3.5]nonane]
GCN2 kinase; [2]
  pKi: 6.00 to 8.00
[1]; compounds of Formula II
  pIC50: < 5.30

## FC(F)(F)c1ccc2ncc(-c3ccnc(N4CCCC(c5c[nH]cn5)C4)c3)n2n1 (stereo not shown) [II-740]
GCN2 kinase; [2]
  pKi: > 8.00
[1]; compounds of Formula II
  pIC50: > 6.30

## Cc1n[nH]cc1[C@@H]1C[C@H](O)CN(c2ccnc(-c3cnc4cnc(C(F)(F)F)cn34)n2)C1 [IV-777, (3S,5S)-5-(3-methyl-1H-pyrazol-4-yl)-1-(2-(6-(trifluoromethyl)imidazo[1,2-a]pyrazin-3-yl)pyrimidin-4-yl)piperidin-3-ol]
GCN2 kinase; compounds of Formula IV, 4 nM GCN2 kinase
  pIC50: 6.00 to 8.00
[1]; compounds of Formula IV
  pIC50: 5.30 to 6.30

## O=C1NCCC12CCCN(c1cc(-c3cnc4ccc(C(F)F)nn34)ccn1)C2 (stereo not shown) [II-156, 7-(4-(6-(Difluoromethyl)imidazo[1,2-b]pyridazin-3-yl)pyridin-2-yl)-2,7-diazaspiro[4.5]decan-1-one]
GCN2 kinase; [2]
  pKi: 6.00 to 8.00
[1]; compounds of Formula II
  pIC50: 5.30 to 6.30

## CC1CN(c2cc(-c3cnc4ccc(C(F)(F)F)nn34)ncn2)C(C)C(c2cn[nH]c2)N1 (stereo not shown) [II-705, 3-(6-(2,5-Dimethyl-3-(1H-pyrazol-4-yl)piperazin-1-yl)pyrimidin-4-yl)-6-(trifluoromethyl)imidazo[1,2-b]pyridazine]
GCN2 kinase; [2]
  pKi: > 8.00
[1]; compounds of Formula II
  pIC50: > 6.30

## C[C@@H]1C[C@H](NS(C)(=O)=O)CN(c2cc(-c3cnc4ccc(C(F)F)nn34)ncn2)C1 [II-449, N-((3S,5R)-1-(6-(6-(Difluoromethyl)imidazo[1,2-b]pyridazin-3-yl)pyrimidin-4-yl)-5-methylpiperidin-3-yl)methanesulfonamide]
GCN2 kinase; [2]
  pKi: > 8.00
[1]; compounds of Formula II
  pIC50: > 6.30

## CS(=O)(=O)NCC1CCCN(c2cc(-c3cnc4ccc(C(F)F)nn34)cc(F)n2)C1 (stereo not shown) [II-122, N-((1-(4-(6-(Difluoromethyl)imidazo[1,2-b]pyridazin-3-yl)-6-fluoropyridin-2-yl)piperidin-3-yl)methyl)methanesulfonamide]
GCN2 kinase; [2]
  pKi: > 8.00
[1]; compounds of Formula II
  pIC50: 5.30 to 6.30

## CC1C(CNS(C)(=O)=O)C(F)(F)C(C)CN1c1cc(-c2cnc3ccc(C(F)F)nn23)ncn1 (single isomer, unassigned) [II-471, N-((1-(6-(6-(Difluoromethyl)imidazo[1,2-b]pyridazin-3-yl)pyrimidin-4-yl)-4,4-difluoro-2,5-dimethylpiperidin-3-yl)methyl)methanesulfonamide]
GCN2 kinase; [2]
  pKi: 6.00 to 8.00
[1]; compounds of Formula II
  pIC50: < 5.30

## O=S(=O)(N[C@H]1CCCN(c2cc(-c3cnc4ccc(C(F)F)nn34)ncn2)C1)C1CC1 [II-442, (S)—N-(1-(6-(6-(Difluoromethyl)imidazo[1,2-b]pyridazin-3-yl)pyrimidin-4-yl)piperidin-3-yl)cyclopropanesulfonamide]
GCN2 kinase; [2]
  pKi: 6.00 to 8.00
[1]; compounds of Formula II
  pIC50: < 5.30

## CC1C(CO)OCCN1c1cc(-c2cnc3ccc(C(F)F)nn23)ncn1 (single isomer, unassigned) [II-414, (4-(6-(6-(Difluoromethyl)imidazo[1,2-b]pyridazin-3-yl)pyrimidin-4-yl)-3-methylmorpholin-2-yl)methanol]
GCN2 kinase; [2]
  pKi: 6.00 to 8.00
[1]; compounds of Formula II
  pIC50: < 5.30

## CC1C(CNS(C)(=O)=O)OCCN1c1cc(-c2cnc3ccc(C(F)F)nn23)ncn1 (stereo not shown) [II-346, N-((4-(6-(6-(Difluoromethyl)imidazo[1,2-b]pyridazin-3-yl)pyrimidin-4-yl)-3-methylmorpholin-2-yl)methyl)methanesulfonamide]
GCN2 kinase; [2]
  pKi: 6.00 to 8.00
[1]; compounds of Formula II
  pIC50: < 5.30

## FC(F)(F)c1cn2c(-c3nccc(N4CCCC(c5cn[nH]c5)C4)n3)cnc2cn1 (single isomer, unassigned) [IV-545, 3-(4-(3-(1H-Pyrazol-4-yl)piperidin-1-yl)pyrimidin-2-yl)-6-(trifluoromethyl)imidazo[1,2-a]pyrazine]
GCN2 kinase; [3]
  pKi: > 8.00
[1]; compounds of Formula IV
  pIC50: 5.30 to 6.30

## NS(=O)(=O)N1CC2(CN(c3cc(-c4cnc5ccc(C(F)F)nn45)ncn3)CCO2)C1 [II-334, 8-(6-(6-(Difluoromethyl)imidazo[1,2-b]pyridazin-3-yl)pyrimidin-4-yl)-5-oxa-2,8-diazaspiro[3.5]nonane-2-sulfonamide]
GCN2 kinase; [2]
  pKi: 6.00 to 8.00
[1]; compounds of Formula II
  pIC50: 5.30 to 6.30

## NCCC1CCCN(c2ccnc(-c3cnc4cnc(C(F)(F)F)cn34)n2)C1 (stereo not shown) [IV-488]
GCN2 kinase; [3]
  pKi: 6.00 to 7.00
[1]; compounds of Formula IV
  pIC50: < 5.30

## CNS(=O)(=O)C1CCCN(c2cc(-c3cnc4ccc(C(F)F)nn34)ncn2)C1 (stereo not shown) [II-480, 1-(6-(6-(Difluoromethyl)imidazo[1,2-b]pyridazin-3-yl)pyrimidin-4-yl)-N-methylpiperidine-3-sulfonamide]
GCN2 kinase; [2]
  pKi: 6.00 to 8.00
[1]; compounds of Formula II
  pIC50: < 5.30
